In patent US8754038B2, “Template-fixed peptidomimetics with CCR10 antagonistic activity” (priority 2009, dated 2014):
Numbered stars: 1 amine (or outer) side, 2 acyl side, 3 side chain; on linkers, the order of the positions; unused ones are H or OH. Square brackets hold non-standard residues; d marks the D form. Side chains are listed from the residue outwards. Peptide text beside a SMILES is read from it. * marks the point of attachment. Pro(4R-OPh) = O=C(O)[C@@H]1C[C@@H](Oc2ccccc2)CN1; Phe(4-CF3) = N[C@@H](Cc1ccc(C(F)(F)F)cc1)C(=O)O; Trp(5-OH) = N[C@@H](Cc1c[nH]c2ccc(O)cc12)C(=O)O; Oic = O=C(O)[C@@H]1C[C@@H]2CCCC[C@@H]2N1; Phe(4-CN) = N#Cc1ccc(C[C@H](N)C(=O)O)cc1; Phe(4-Cl) = N[C@@H](Cc1ccc(Cl)cc1)C(=O)O; Tic(7-OH) = O=C(O)[C@@H]1Cc2ccc(O)cc2CN1; Phe(4-F) = N[C@@H](Cc1ccc(F)cc1)C(=O)O; 2Nal = N[C@@H](Cc1ccc2ccccc2c1)C(=O)O; Hyp = O=C(O)[C@@H]1C[C@@H](O)CN1; Tic = O=C(O)[C@@H]1Cc2ccccc2CN1; MeOCH2CH2OCH2CO = COCCOCC(=O)*; Benzyl(4-Br) = Brc1ccc(C*)cc1; Thz = O=C(O)[C@@H]1CSCN1; Ac5c = NC1(C(=O)O)CCCC1; Dab = NCC[C@H](N)C(=O)O; dAze = O=C(O)[C@H]1CCN1; Aib = CC(C)(N)C(=O)O; CO = O=C([*:1])[*:2]; NHCH2CH2OMe = COCCN*; Bn = c1ccc(C*)cc1

What was measured:
human CCR10 [1] = target: T1, human CCR10 (Homo sapiens, UniProt P46092); test: Chemotaxis assay (CCR10-transfected 300-19 cells, CCL27 gradient); type: cell-based; conditions: CCR10-transfected 300-19 murine pre-B cells; 30 nM CCL27 gradient
T1 construct: expressed in transfected cells
T1 sequence (P46092 1-362): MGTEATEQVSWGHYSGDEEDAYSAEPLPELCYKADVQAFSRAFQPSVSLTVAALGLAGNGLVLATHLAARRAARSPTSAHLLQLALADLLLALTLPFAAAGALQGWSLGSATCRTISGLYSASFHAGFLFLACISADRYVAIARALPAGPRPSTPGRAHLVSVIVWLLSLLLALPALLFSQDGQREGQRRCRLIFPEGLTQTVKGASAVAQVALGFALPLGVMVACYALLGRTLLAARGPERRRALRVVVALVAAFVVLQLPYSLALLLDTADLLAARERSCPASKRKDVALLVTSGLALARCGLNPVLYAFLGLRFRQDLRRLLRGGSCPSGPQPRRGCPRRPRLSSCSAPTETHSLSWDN
Protocol: (§1) Lyophilized peptides were weighed on a Microbalance (Mettler MX5) and dissolved in aqueous 90% DMSO to a final concentration of 10 mM unless otherwise stated. Stock solutions were kept at +4° C., and protected from light.
(§2) Peptides were assayed for CCR10 antagonism in a calcium flux assay and in a chemotaxis assay using a mouse pre-B cell line 300-19 stably transfected with human CCR10, and with human CCL27 as agonist.
The chemotactic response of CCR10-transfected 300-19 murine pre-B cells to a gradient of CCL27 (CTACK) was measured using disposable Transwell® assay plates from Costar (5 μm pore size) according to the protocol of the manufacturer. Briefly, cells were grown under sterile conditions at 37° C. with 5% CO2 in flasks containing RPMI+5% FCS, glutamine, penicillin/streptomycin (all media components were from Life Technologies) and the appropriate selection antibiotics (Puromycin, G418 or Tetracycline). For the assay, cells were pelleted by centrifugation, washed once in Dulbecco's phosphate buffered saline (DPBS), and resuspended to give 1×10^6 cells/ml in RPMI+0.5% bovine serum albumin (BSA). 100 μl of cell suspension was applied to the top of the assay filter. The β-hairpin peptidomimetics, diluted in the same assay medium, were added to both top and bottom chambers. The cells were allowed to migrate for 4-6 hours at 37° C. into the bottom chamber of the assay plate containing 30 nM of CCL27 (RnD systems). Migrated cells were counted using a FACS cytometer (Cytomics FC500, Beckman Coulter). Data normalization was performed using the number of any cells that had migrated in the absence of the β-hairpin peptidomimetic and the number of cells that have randomly migrated in absence of CCL27 [these values were taken as 100% (no inhibitory activity) and 0%, respectively]. From a range of compound concentrations IC50 were determined using Prism5 (GraphPad software).

human CCR10 [2] = target: T1, human CCR10; test: Calcium flux assay (CCR10 antagonism, CCL27 as agonist); type: cell-based; conditions: CCR10 transfected 300-19 murine pre-B cells; CCL27 30 nM
Protocol: as §1, §2
The calcium flux release was assessed using CCR10 transfected 300-19 murine pre-B cells. These cells were labeled as a batch with Calcium4 Reagent (Molecular Devices, Sunnyvale, Calif.) in HBSS buffer for 60 min.
After dispensing 8×10^4 cells in each well of a 384-well black plate, a concentrated solution of the β-hairpin peptidomimetics of this invention in HBSS+0.1% BSA+0.1% DMSO (final concentration) was added to the cells. The entire plate was centrifuged and placed in a Flexstation II (Molecular Devices) automated plate reader. After reading a 20 s baseline, the Flexstation dispensed CCL27 (RnD systems) at a final concentration of 30 nM in HBSS+0.1% BSA onto the cells and calcium flux was measured for an additional 70 s.
Alternatively a FIipR384 (Molecular Devices) was used for read out of the 384-well plates. In this case about 8×10^4 cells were placed in each well, centrifuged, placed in the FlipR and after 5 s of baseline reading, the β-hairpin peptidomimetics in HBSS+0.1% BSA+0.1% DMSO (final concentration) were added. After an incubation time of 5 min, the CCL27 solution was added to the mixture and the calcium flux was measured for 200 s.
The maximum signal was determined from control wells without inhibitor. Percentage of inhibition was calculated from a range of compound concentrations, which were subsequently used to calculate IC50 values (Softmax Pro, Molecular Devices). All steps were carried out at room temperature.

SMILES	IC50 (human CCR10 [1]) [nM]	IC50 (human CCR10 [2]) [nM]
NCC[C@H](N)C(=O)NCC[C@@H]1NC(=O)[C@H](Cc2c[nH]c3ccccc23)NC(=O)C2(CCCC2)NC(=O)[C@H](Cc2c[nH]c3ccccc23)NC(=O)[C@@H]2C[C@@H]3CCCC[C@@H]3N2C(=O)[C@H]2CCCN2C1=O [Ex. 71, cyclo(-Trp-Cyp-Trp-Dab(Dab)-^DPro-Oic-)] (cyclo([Ac5c]W[Dab](Dab)[dP][Oic]W))	50.2	567 ± 155
CC1(C)NC(=O)[C@H](Cc2c[nH]c3ccccc23)NC(=O)[C@@H]2Cc3ccccc3CN2C(=O)[C@H]2CCCN2C(=O)[C@H](CCCNC(=N)N)NC(=O)[C@H](Cc2c[nH]c3ccccc23)NC1=O [Ex. 1, cyclo(-Trp-Aib-Trp-Arg-^DPro-Tic-)] (cyclo([Aib]WR[dP][Tic]W))	94	226 ± 187
NC(=O)CC[C@@H]1NC(=O)[C@H](Cc2c[nH]c3ccccc23)NC(=O)C2(CCCC2)NC(=O)[C@H](Cc2ccc3ccccc3c2)NC(=O)[C@@H]2Cc3ccccc3CN2C(=O)[C@H]2CCCN2C1=O [Ex. 9, cyclo(-2NaI-Cyp-Trp-Gln-^DPro-Tic-)] (cyclo([2Nal][Ac5c]WQ[dP][Tic]))	2	9.2 ± 3.6
COCCOCC(=O)NCC[C@@H]1NC(=O)[C@H](Cc2c[nH]c3ccccc23)NC(=O)C2(CCCC2)NC(=O)[C@H](Cc2c[nH]c3ccccc23)NC(=O)[C@@H]2C[C@@H]3CCCC[C@@H]3N2C(=O)[C@H]2CCCN2C1=O [Ex. 72, cyclo(-Trp-Cyp-Trp-Dab(MEMCO)-^DPro-Oic-)] (cyclo([Ac5c]W[Dab](MeOCH2CH2OCH2CO)[dP][Oic]W))	11.5	62.8 ± 41.6
NCC[C@@H]1NC(=O)[C@H](Cc2c[nH]c3ccccc23)NC(=O)C2(CCCC2)NC(=O)[C@H](Cc2c[nH]c3ccccc23)NC(=O)[C@@H]2C[C@@H](Oc3ccccc3)CN2C(=O)[C@H]2CCCN2C1=O [compound 52, cyclo(-Trp-Cyp-Trp-Dab-^DPro-Hyp(Ph)-)] (cyclo([Ac5c]W[Dab][dP][Pro(4R-OPh)]W))	37	42 ± 25.1
N#Cc1ccc(C[C@@H]2NC(=O)[C@@H]3C[C@@H](OCc4ccccc4)CN3C(=O)[C@H]3CCCN3C(=O)[C@H](CO)NC(=O)[C@H](Cc3ccc(F)cc3)NC(=O)C3(CCCC3)NC2=O)cc1 [compound 44, cyclo(-Phe(4CN)-Cyp-Phe(4F)-Ser-^DPro-Hyp(Bn)-)] (cyclo([Ac5c][Phe(4-F)]S[dP][Hyp](Bn)[Phe(4-CN)]))	13.5	1.9 ± 2.1
COCCNC(=O)NCC[C@@H]1NC(=O)[C@H](Cc2c[nH]c3ccccc23)NC(=O)C2(CCCC2)NC(=O)[C@H](Cc2c[nH]c3ccccc23)NC(=O)[C@@H]2C[C@@H]3CCCC[C@@H]3N2C(=O)[C@H]2CCCN2C1=O [Ex. 73, cyclo(-Trp-Cyp-Trp-Dab(MeO(CH2)2NHCO)-^DPro-Oic-)] (cyclo([Ac5c]W[Dab]([CO-NHCH2CH2OMe])[dP][Oic]W))	5.3	24.2 ± 24.5
N#Cc1ccc(C[C@@H]2NC(=O)[C@@H]3C[C@@H](OCc4ccccc4)CN3C(=O)[C@H]3CCCN3C(=O)[C@H](CCC(N)=O)NC(=O)[C@H](Cc3c[nH]c4ccccc34)NC(=O)C3(CCCC3)NC2=O)cc1 [compound 47, cyclo(-Phe(4CN)-Cyp-Trp-Gln-^DPro-Hyp(Bn)-)] (cyclo([Ac5c]WQ[dP][Hyp](Bn)[Phe(4-CN)]))	–	21.7 ± 3.9
N=C(N)NCCC[C@@H]1NC(=O)[C@H](Cc2c[nH]c3ccccc23)NC(=O)C2(CCCC2)NC(=O)[C@H](Cc2c[nH]c3ccccc23)NC(=O)[C@@H]2Cc3ccccc3CN2C(=O)[C@H]2CCN2C1=O [Ex. 25, cyclo(-Trp-Cyp-Trp-Arg-^DAze-Tic-)] (cyclo([Ac5c]WR[dAze][Tic]W))	–	70.4 ± 19.2
NCC[C@@H]1NC(=O)[C@H](Cc2c[nH]c3ccccc23)NC(=O)C2(CCCC2)NC(=O)[C@H](Cc2ccc(C(F)(F)F)cc2)NC(=O)[C@@H]2C[C@@H](OCc3ccc(Br)cc3)CN2C(=O)[C@H]2CCCN2C1=O [Ex. 54, cyclo(-Phe(4CF3)-Cyp-Trp-Dab-^DPro-Hyp(4BrBn)-)] (cyclo([Ac5c]W[Dab][dP][Hyp](Benzyl(4-Br))[Phe(4-CF3)]))	–	22.6 ± 13.6
N=C(N)NCCC[C@@H]1NC(=O)[C@H](Cc2c[nH]c3ccccc23)NC(=O)C2(CCCC2)NC(=O)[C@H](Cc2c[nH]c3ccccc23)NC(=O)[C@@H]2CSCN2C(=O)[C@H]2CCCN2C1=O [Ex. 5, cyclo(-Trp-Cyp-Trp-Arg-DPro-Thz-)] (cyclo([Ac5c]WR[dP][Thz]W))	–	70.6 ± 20.1

Other lines, results leading:

IC50 (human CCR10 [1]) [nM]	IC50 (human CCR10 [2]) [nM]	SMILES
35.4	12.6 ± 9	O=C1NC2(CCCC2)C(=O)N[C@@H](Cc2c[nH]c3ccccc23)C(=O)N[C@@H](CO)C(=O)N2CCC[C@@H]2C(=O)N2C[C@H](OCc3ccccc3)C[C@H]2C(=O)N[C@H]1Cc1c[nH]c2ccccc12 [compound 46, cyclo(-Trp-Cyp-Trp-Ser-^DPro-Hyp(Bn)-)] (cyclo([Ac5c]WS[dP][Hyp](Bn)W))
–	190 ± 89.8	NCC[C@@H]1NC(=O)[C@H](Cc2c[nH]c3ccccc23)NC(=O)C2(CCCC2)NC(=O)[C@H](Cc2c[nH]c3ccccc23)NC(=O)[C@@H]2C[C@@H](O)CN2C(=O)[C@H]2CCCN2C1=O [Ex. 103, cyclo(-Trp-Cyp-Trp-Dab-^DPro-Hyp-)] (cyclo([Ac5c]W[Dab][dP][Hyp]W))
21.6	200 ± 56.5	CC1(C)NC(=O)[C@H](Cc2c[nH]c3ccccc23)NC(=O)[C@@H]2Cc3ccccc3CN2C(=O)[C@H]2CCCN2C(=O)[C@H](CCN)NC(=O)[C@H](Cc2c[nH]c3ccccc23)NC1=O [Ex. 2, cyclo(-Trp-Aib-Trp-Dab-^DPro-Tic-)] (cyclo([Aib]W[Dab][dP][Tic]W))
14	65.8 ± 19.6	NCC[C@@H]1NC(=O)[C@H](Cc2c[nH]c3ccccc23)NC(=O)C2(CCCC2)NC(=O)[C@H](Cc2c[nH]c3ccccc23)NC(=O)[C@@H]2C[C@@H](OCc3ccccc3)CN2C(=O)[C@H]2CCCN2C1=O [compound 45, cyclo(-Trp-Cyp-Trp-Dab-^DPro-Hyp(Bn)-)] (cyclo([Ac5c]W[Dab][dP][Hyp](Bn)W))
–	57 ± 26.4	NCC[C@@H]1NC(=O)[C@H](Cc2c[nH]c3ccccc23)NC(=O)C2(CCCC2)NC(=O)[C@H](Cc2c[nH]c3ccccc23)NC(=O)[C@@H]2Cc3ccccc3CN2C(=O)[C@H]2CCN2C1=O [Ex. 26, cyclo(-Trp-Cyp-Trp-Dab-^DAze-Tic-)] (cyclo([Ac5c]W[Dab][dAze][Tic]W))
–	78.5 ± 38.6	N=C(N)NCCC[C@@H]1NC(=O)[C@H](Cc2c[nH]c3ccccc23)NC(=O)C2(CCCC2)NC(=O)[C@H](Cc2c[nH]c3ccccc23)NC(=O)[C@@H]2Cc3ccc(O)cc3CN2C(=O)[C@H]2CCCN2C1=O [Ex. 3, cyclo(-Trp-Cyp-Trp-Arg-^DPro-Tic(7OH)—)] (cyclo([Ac5c]WR[dP][Tic(7-OH)]W))
–	52.5 ± 3.5	N=C(N)NCCC[C@@H]1NC(=O)[C@H](Cc2c[nH]c3ccccc23)NC(=O)C2(CCCC2)NC(=O)[C@H](Cc2c[nH]c3ccc(O)cc23)NC(=O)[C@@H]2Cc3ccccc3CN2C(=O)[C@H]2CCCN2C1=O [Ex. 8, cyclo(-Trp(5OH)-Cyp-Trp-Arg-^DPro-Tic-)] (cyclo([Ac5c]WR[dP][Tic][Trp(5-OH)]))
–	39.9 ± 34.8	NCC[C@@H]1NC(=O)[C@H](Cc2ccc(Cl)cc2)NC(=O)C2(CCCC2)NC(=O)[C@H](Cc2c[nH]c3ccccc23)NC(=O)[C@@H]2C[C@@H](OCc3ccccc3)CN2C(=O)[C@H]2CCCN2C1=O [Ex. 43, cyclo(-Trp-Cyp-Phe(4Cl)-Dab-^DPro-Hyp(Bn)-)] (cyclo([Ac5c][Phe(4-Cl)][Dab][dP][Hyp](Bn)W))
